Test results taken from ChEMBL document CHEMBL1141148, “Antidiabetic activity of passive nonsteroidal glucocorticoid receptor modulators” (J Med Chem, 2005).
Values joined by “and” are separate entries in the source; they are usually repeats but may differ in a detail not shown here. Equal entries are not always repeated. Each block holds one compound with its values, some of them ahead of it. Active and inactive are the calls of the source. No cut-off for these calls is given here.

Key:
Rattus norvegicus [1] = test: Reduction of uterine weight in pregnant rats after q.d. oral dosing at 3 mpk; type: functional
Rattus norvegicus [2] = test: Reduction of progesterone levels in pregnant rats after q.d. oral dosing at 3 mpk; type: functional
Mus musculus [3] = species on record: Mus musculus; test: Initial weight of the ob/ob mice before oral treatment at 100 mpk b.i.d. for 13 days; type: functional
Mus musculus [4] = species on record: Mus musculus; test: Initial weight of the ob/ob mice before oral treatment at 100 mpk b.i.d. for 14 days; type: functional
Mus musculus [5] = species on record: Mus musculus; test: Final weight of the ob/ob mice after 13 days of oral treatment at 100 mpk b.i.d.; type: functional
[6] = Half life period of the compound in rat hepatocytes was determined; type: ADME, cell-based, Liver, Hepatocyte
[7] = Half life period of the compound in rat liver microsomes was determined; type: ADME, Microsome
[8] = Cholesterol levels in ob/ob mice after 14 days of oral dose at 100 mpk b.i.d.; type: ADME; details: mouse, in vivo, 100 mg/kg, 336 h
[9] = Glucose levels in ob/ob mice after 13 days of oral dose at 100 mpk b.i.d.; type: ADME; details: mouse, in vivo, 100 mg/kg, 312 h
[10] = Glucose levels in ob/ob mice after 14 days of oral dose at 100 mpk b.i.d.; type: ADME; details: mouse, in vivo, 100 mg/kg, 336 h
[11] = Insulin levels in ob/ob mice after 13 days of oral dose at 100 mpk b.i.d.; type: ADME; details: mouse, in vivo, 100 mg/kg, 312 h
[12] = Insulin levels in ob/ob mice after 14 days of oral dose at 100 mpk b.i.d.; type: ADME; details: mouse, in vivo, 100 mg/kg, 336 h
[13] = Free fatty acid (FFA) levels in ob/ob mice after 13 days of oral dose at 100 mpk b.i.d.; type: ADME; details: mouse, in vivo, 100 mg/kg, 312 h
[14] = Free fatty acid (FFA) levels in ob/ob mice after 14 days of oral dose at 100 mpk b.i.d.; type: ADME; details: mouse, in vivo, 100 mg/kg, 336 h
[15] = Alanine aminotransferase (ALT) levels in ob/ob mice after 13 days of oral dose at 100 mpk b.i.d.; type: ADME; details: mouse, in vivo, 100 mg/kg, 312 h
[16] = Aspartate aminotransferase (AST) levels in ob/ob mice after 13 days of oral dose at 100 mpk b.i.d.; type: ADME; details: mouse, in vivo, 100 mg/kg, 312 h
[17] = Liver levels in ob/ob mice after 14 days of oral dose at 100 mpk b.i.d.; type: ADME, tissue-based; details: mouse, in vivo, 100 mg/kg, 336 h
[18] = Glycogen levels in ob/ob mice after 14 days of oral dose at 100 mpk b.i.d.; type: ADME; details: mouse, in vivo, 100 mg/kg, 336 h
Progesterone receptor = target: T1, Progesterone receptor (Homo sapiens, UniProt P06401); test: Inhibition of human progesterone receptor
T1 sequence (P06401 whole entry): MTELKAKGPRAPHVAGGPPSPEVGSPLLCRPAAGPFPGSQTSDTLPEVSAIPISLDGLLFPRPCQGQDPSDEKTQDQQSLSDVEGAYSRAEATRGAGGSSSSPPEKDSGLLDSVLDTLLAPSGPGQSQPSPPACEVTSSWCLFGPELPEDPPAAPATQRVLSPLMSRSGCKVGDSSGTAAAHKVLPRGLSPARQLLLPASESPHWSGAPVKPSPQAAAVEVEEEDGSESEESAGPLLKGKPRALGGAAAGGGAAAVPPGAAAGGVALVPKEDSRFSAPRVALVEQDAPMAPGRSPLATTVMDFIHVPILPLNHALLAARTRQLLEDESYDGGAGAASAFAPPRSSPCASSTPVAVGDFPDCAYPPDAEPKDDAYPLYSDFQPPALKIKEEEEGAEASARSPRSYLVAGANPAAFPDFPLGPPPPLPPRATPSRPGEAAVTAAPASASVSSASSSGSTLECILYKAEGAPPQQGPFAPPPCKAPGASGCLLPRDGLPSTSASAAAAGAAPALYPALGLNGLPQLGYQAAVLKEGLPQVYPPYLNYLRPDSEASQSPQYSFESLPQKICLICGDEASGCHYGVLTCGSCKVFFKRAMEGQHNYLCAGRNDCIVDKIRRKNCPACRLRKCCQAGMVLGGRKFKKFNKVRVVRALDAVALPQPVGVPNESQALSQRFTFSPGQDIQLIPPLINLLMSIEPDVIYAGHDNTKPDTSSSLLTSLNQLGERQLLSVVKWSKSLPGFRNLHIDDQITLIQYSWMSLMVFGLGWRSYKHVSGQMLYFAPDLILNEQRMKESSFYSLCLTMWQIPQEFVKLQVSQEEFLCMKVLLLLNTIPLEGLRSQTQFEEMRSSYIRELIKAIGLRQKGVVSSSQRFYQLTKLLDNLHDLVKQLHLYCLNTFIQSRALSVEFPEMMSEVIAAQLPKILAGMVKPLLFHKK

Glucocorticoid receptor [19] = target: T2, Glucocorticoid receptor (Homo sapiens, UniProt P04150); test: Antagonistic activity against 5 nM Dexamethasone induced glucocorticoid receptor mediated alkaline phosphatase activity; type: functional
T2 sequence (P04150 whole entry): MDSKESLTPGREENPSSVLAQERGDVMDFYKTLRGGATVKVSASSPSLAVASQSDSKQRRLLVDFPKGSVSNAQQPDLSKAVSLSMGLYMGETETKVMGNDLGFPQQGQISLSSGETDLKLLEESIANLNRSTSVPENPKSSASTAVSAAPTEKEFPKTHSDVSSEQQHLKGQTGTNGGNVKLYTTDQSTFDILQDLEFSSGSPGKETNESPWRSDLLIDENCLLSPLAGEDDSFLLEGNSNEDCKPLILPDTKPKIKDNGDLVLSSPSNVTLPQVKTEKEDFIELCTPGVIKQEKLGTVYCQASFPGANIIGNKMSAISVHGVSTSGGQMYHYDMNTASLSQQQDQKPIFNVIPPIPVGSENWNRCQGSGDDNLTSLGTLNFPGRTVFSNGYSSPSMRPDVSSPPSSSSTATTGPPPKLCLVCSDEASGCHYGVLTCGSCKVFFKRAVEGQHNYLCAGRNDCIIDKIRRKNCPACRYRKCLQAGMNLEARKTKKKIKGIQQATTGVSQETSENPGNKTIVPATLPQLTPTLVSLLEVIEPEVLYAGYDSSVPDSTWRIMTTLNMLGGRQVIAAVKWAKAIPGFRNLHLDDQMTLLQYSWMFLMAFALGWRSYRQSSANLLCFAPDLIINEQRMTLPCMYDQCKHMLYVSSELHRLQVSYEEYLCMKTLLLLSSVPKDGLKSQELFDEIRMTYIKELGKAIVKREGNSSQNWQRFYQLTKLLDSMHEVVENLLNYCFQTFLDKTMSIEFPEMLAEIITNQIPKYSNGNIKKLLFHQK

Glucocorticoid receptor [20] = target: T2, Glucocorticoid receptor
[21] = target: T3, Glucocorticoid receptor (Homo sapiens) (UniProt P04150); details: Huh-7
T3 sequence (whole entry): T2 sequence (P04150 whole entry)

Structure (SMILES): CC#C[C@]1(O)CC[C@H]2[C@@H]3CCC4=CC(=O)CCC4=C3[C@@H](c3ccc(N(C)C)cc3)C[C@@]21C [MIFEPRISTONE]
Reduction (Rattus norvegicus [1]): 50%
Reduction (Rattus norvegicus [2]): 50%
Weight (Mus musculus [3]): 46.1 g
Weight (Mus musculus [4]): 41.7 g
Weight (Mus musculus [5]): 48.2 g and 51.2 g
half-life [6]: < 6 min
half-life [7]: < 19.8 min
Level [8]: 3660 µg/mL
Level [9]: 1410 µg/mL
Level [10]: 1700 µg/mL
Level [11]: 0.0075 µg/mL
Level [12]: 0.014 µg/mL
Level [13]: 1.5 mequiv/L
Level [14]: 0.84 mequiv/L
Level [15]: 1110 units/mL
Level [16]: 310 units/mL
Level [17]: 1.8 nmol of pHB/min/mg of protein
Level [18]: 30.5 mg/gof liver

IC50 (Progesterone receptor): 140 nM
IC50 (Glucocorticoid receptor [19]): 330 nM
IC50 (Glucocorticoid receptor [20]): 1.8 nM
Agonistic activity [21]: inactive
Structure (SMILES): Cc1c(NS(C)(=O)=O)cccc1N(Cc1ccc(Oc2ccc(Br)c(OCC(=O)O)c2)cc1)Cc1ccc(F)cc1F
